{"source": "patent US11464854B2", "about": "“Methods and compositions relating to adjuvants” (Children's Medical Center Corporation, priority 2017, dated 2022)", "key": {"TNF": {"tested_on": "TNF", "assay": "Rat pharmacodynamics: serum TNF by ELISA", "format": "in vivo, rats", "conditions": "rats, single IM or SC administration"}, "[1]": {"tested_on": "human neonatal and adult blood", "assay": "Human whole blood assay, cytokine induction (3M-052, PCV13)", "format": "cell-based", "conditions": "6 hours, concentration-dependent, each agent alone", "source_text": "Human blood sample processing and in vitro stimulation. Peripheral blood was collected from healthy adult volunteers, while human newborn cord blood was collected immediately after Cesarean section delivery of the placenta. Births to known HIV-positive mothers were excluded. Human experimentation guidelines of the U.S. Department of Health and Human Services, The Brigham & Women's Hospital, Beth Israel Deaconess Medical Center Boston, and Boston Children's Hospital were observed, following protocols approved by the local institutional review boards. Human blood was anti-coagulated with 20 units/ml pyrogen-free sodium heparin (American Pharmaceutical Partners, Inc.; Schaumberg, Ill.). All blood products were kept at room temperature and processed within 4 hours from collection. […] Additionally, whole blood assay supernatants were analyzed by multiplex cytokine assays (Millipore; Billerica, Mass., USA). […]\nTLR agonists and multi-analyte assays. […] Cytokine and chemokine expression profiles in cell culture supernatants and peripheral blood plasma were measured using customized Milliplex human and non-human primate cytokine/chemokine magnetic bead panels (Millipore), respectively. Assays were analyzed on the Luminex® 100/200™ System employing xPOTENT® software (Luminex; Austin, Tex.) and Millipore Milliplex Analyst (version 3.5.5.0)."}, "[2]": {"assay": "Safety and reactogenicity monitoring in neonatal/infant rhesus macaques", "format": "in vivo, rhesus macaques (Macaca mulatta)", "method": "In vivo neonatal and infant rhesus macaque vaccination studies. Rhesus macaques (Indian origin Macaca mulatta) were obtained from the TNPRC specific pathogen-free breeding colony. Upon identification, pregnant dams were transferred to an indoor social group to allow for monitoring and delivery of infants. At birth, neonatal rhesus macaques (<24 hours of age) were enrolled into the longitudinal immunization study. Exclusion criteria were, a) maternal fever (≥40° C.) during infant exam on DOL0, b) birth weight<400 g, c) clinical signs of neonatal infection (e.g. infant temperature […]; nasal, ocular discharge; respiratory distress, cardiovascular instability), d) congenital defects (e.g. abnormal digits, omphalocele) and/or e) abnormal cling. Animals were group-housed in dam/infant pairs with a maximum of 4 pairs (8 animals) together. […] Standard physiological safety parameters, extrapolated from human infant clinical trials of PCV (28), included temperature and weight (normalized to Tulane National Primate Research Center reference standard for rhesus macaques), which were recorded at multiple time-points at observation/sample-acquisition, as well as local signs of reactogenicity such as leg circumference pre/post-immunization and photographic documentation of erythema (Table 4). […]"}, "[3]": {"tested_on": "influenza hemagglutinin (HA)", "assay": "Mouse immunization with influenza hemagglutinin (HA), HA-specific serum Ig by ELISA", "format": "in vivo, Balb/c mice", "conditions": "three times, Day 77"}, "[4]": {"conditions": "rats"}}}
{"smiles": "CCCCCCCCCCCCCCCCCC(=O)NCCCCOn1c(CCCC)nc2c(N)nc3ccccc3c21", "note": "[3M-052, N-[4-[(4-amino-2-butyl-1H-imidazo[4,5-c]quinolin-1-yl)oxy]butyl]octadecanamide]", "values": [{"measurement": "Blood tumor necrosis factor (TNF) concentrations, peak", "setting": "TNF", "value": "no induced systemic TNF detectable"}, {"measurement": "production of TNF", "setting": "[1]", "value": "significantly inducing production of TNF over baseline"}, {"measurement": "animals with transient and mild maculopapular rash", "setting": "[2]; 3M-052- or (PCV13+3M-052)-treated infant animals, co-housed, second enrollment season", "value": "3 of the total of 16"}, {"measurement": "systemic cytokine induction (plasma)", "setting": "[2]; with or without PCV13, first 63 days of life or 48 hours post (DOL30) a single dose", "value": "did not induce systemic cytokine induction"}, {"measurement": "antigen-specific IgG levels (IgG1, IgG2a)", "setting": "[3]; HA 10 μg with 0.01-1 mg/kg 3M-052 SC", "value": "enhances antigen-specific IgG levels"}, {"measurement": "HA-specific IgG2a Ab production", "setting": "[3]; added to Alum-adjuvanted HA 10 μg, 0.1 mg/kg 3M-052 SC", "value": "markedly enhances"}, {"measurement": "3M-052 in serum", "setting": "[4]; 0.1 mg/kg, up to 24 hours post-dose", "value": "not detectable"}, {"measurement": "serum 3M-052 peak", "setting": "[4]; 1 mg/kg, 4 hour peak", "value": "~50", "unit": "pmol/mL"}]}
